# Laboratory results as given in patent US11446287B2, “Compounds and methods for EP300 or CBP modulation and indications therefor” (Opna Immuno-Oncology SA, priority 2019, dated 2022).
# Target: T1, Recombinant human BRD4 containing dual bromodomains (BRD4-BD12 (1-477)) (Homo sapiens, UniProt O60885)
# T1 construct: Recombinant human BRD4 containing dual bromodomains (BRD4-BD12 (1-477)); made in house; host or cells: E. coli BL21-CodonPlus (DE3), modified pET vector
# Assay: BRD4 Alphascreen binding assay
# How it was run: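 His-tagged human BRD4 tandem bromodomains (1-477, E. coli) incubated 1 h at room temperature with biotinylated tetra-acetylated H4 (1-21) peptide and compound in HEPES pH 7.5 buffer with 2 mM DTT. AlphaScreen signal read 30 min after adding beads (7.5 μg/ml); IC50 from four-parameter fit after normalization to controls.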
row,Structure (SMILES),IC50 [µM]
1,"COc1ccc(C(=O)O)cc1-c1c(C(F)(F)F)n([C@@H](C)c2ccccn2)c2cc(-c3c(C)noc3C)cnc12 [P-0239, (S)-3-(6-(3,5-dimethylisoxazol-4-yl)-1-(1-(pyridin-2-yl)ethyl)-2-(trifluoromethyl)-1H-pyrrolo[3,2-b]pyridin-3-yl)-4-methoxybenzoic acid]",8 to 1000
2,"Cc1noc(C)c1-c1cnc2c(-c3cc(F)cc(C(=O)O)c3)c(C(F)(F)F)n([C@@H](C)c3ccccn3)c2c1 [P-0240, (S)-3-(6-(3,5-dimethylisoxazol-4-yl)-1-(1-(pyridin-2-yl)ethyl)-2-(trifluoromethyl)-1H-pyrrolo[3,2-b]pyridin-3-yl)-5-fluorobenzoic acid]",8 to 1000
3,"Cc1noc(C)c1-c1cnc2c(-c3cc(Cl)cc(C(=O)O)c3)c(C(F)(F)F)n([C@@H](C)c3ccccn3)c2c1 [P-0241, (S)-3-chloro-5-(6-(3,5-dimethylisoxazol-4-yl)-1-(1-(pyridin-2-yl)ethyl)-2-(trifluoromethyl)-1H-pyrrolo[3,2-b]pyridin-3-yl)benzoic acid]",8 to 1000
4,"Cc1noc(C)c1-c1cnc2c(-c3ccc(C(=O)O)c(F)c3)c(C(F)(F)F)n([C@@H](C)c3ccccn3)c2c1 [P-0242, (S)-4-(6-(3,5-dimethylisoxazol-4-yl)-1-(1-(pyridin-2-yl)ethyl)-2-(trifluoromethyl)-1H-pyrrolo[3,2-b]pyridin-3-yl)-2-fluorobenzoic acid]",8 to 1000
